Measured values taken from PubChem BioAssay (NCI).
Where “and” joins values, the source holds several entries; their conditions need not be identical. Identical values can stand only once.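 Briefly, cells in 96-well plates were exposed to five compound concentrations for 48 h, and endpoints were estimated by linear interpolation. At the GI50, growth is halved. TGI marks complete inhibition of growth.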

Assays:
Assay in all cases: NCI tumour cell line growth inhibition, 48 h
[1] = test system: CCRF-CEM leukemia
[2] = test system: HCT-15 colon
[3] = test system: MDA-MB-231 breast
[4] = test system: NCI-H226 lung
[5] = test system: NCI-H460 lung
[6] = test system: PC-3 prostate
[7] = test system: SF-539 CNS
[8] = test system: SW-620 colon
[9] = test system: UO-31 renal

SMILES	TGI [1]	TGI [2]	TGI [3]	TGI [4]	TGI [5]	TGI [6]	TGI [7]	TGI [8]	TGI [9]	GI50 [1]	GI50 [2]	GI50 [3]	GI50 [4]	GI50 [5]	GI50 [7]
CCOC(=O)c1cn2c(n1)sc1cc(Cl)cc(Cl)c12	> 100 µM	> 100 µM	> 100 µM	> 100 µM	> 100 µM	> 100 µM	> 100 µM	> 100 µM	> 100 µM						
C=C(CN(C)C)C(=O)c1ccccc1[N+](=O)[O-]	8.06 µM	27 µM and 12.6 µM	38 µM and 34.1 µM	> 58.3 µM and 47 µM	59.3 µM and 45.1 µM	31.3 µM and 13.5 µM	71.4 µM and 40.4 µM	31.3 µM	32.2 µM	2.7 µM and 2.18 µM	3.34 µM	12.6 µM	20.9 µM	19.6 µM	18.6 µM
O=C(Nc1noc(-c2ccccc2)n1)c1ccccc1CNc1noc(-c2ccccc2)n1	> 100 µM	> 100 µM	> 100 µM	> 100 µM	> 100 µM	> 100 µM	> 100 µM	> 100 µM	> 100 µM						
S=c1cc(-c2ccc3c(c2)OCO3)s[nH]1	> 100 µM	> 100 µM	> 100 µM	> 100 µM	> 100 µM	> 100 µM	> 100 µM	> 100 µM	> 100 µM						
COC1CC(OC2CCC3(C)C(=CCC4C3C(OC(C)=O)C(OC(=O)CC(C)C)C3(C)C(C(C)=O)CCC43O)C2)OC(C)C1OC1CC(OC)C(OC2CC(OC)C(OC3OC(C)C(OC4OC(CO)C(O)C(O)C4O)C(OC)C3O)C(C)O2)C(C)O1 (centres undefined)	> 7.5 µM	> 75 µM	> 75 µM	> 75 µM	> 7.5 µM	> 75 µM	> 75 µM	> 75 µM	> 75 µM						
CCOC(=O)/C=C(\C(=O)OCC)n1ccc(=O)n(Cc2cn(COCCOC(C)=O)nn2)c1=O	11.9 µM	38 µM	41.1 µM	29.7 µM	> 52.5 µM	41.5 µM	38.9 µM	31.4 µM	34.1 µM						
CCOC(=O)c1nnsc1NN	> 100 µM	> 100 µM	> 100 µM	> 100 µM	> 100 µM	> 100 µM	> 100 µM	> 100 µM	> 100 µM						
COC(=O)[C@H](Cc1ccccc1)NC(=O)CCCCCCC(=O)NO	> 100 µM	> 100 µM	65.3 µM	> 100 µM	86 µM	38.2 µM	> 100 µM	> 100 µM	> 100 µM						
NC(=O)N/N=C1\CC2C3CC4C2C4C13 (centres undefined)	> 100 µM	> 100 µM	> 100 µM	> 100 µM	> 100 µM	> 100 µM	> 100 µM	> 100 µM	> 100 µM						
O=c1[nH]nc(Cc2ccccc2)n1/N=C/c1ccncc1	> 100 µM	> 100 µM	> 100 µM	> 100 µM	> 100 µM	> 100 µM	> 100 µM	> 100 µM	> 100 µM						
COc1cc(/C=C/C=C2\CC/C(=C\C=C\c3ccc(O)c(OC)c3)C2=O)ccc1O	8.26 µM	> 100 µM	> 100 µM	> 100 µM	> 100 µM	> 100 µM	> 100 µM	> 100 µM	> 100 µM						
O=[N+]([O-])c1ccc2c(c1)C1=NN(c3ccccc3)C(c3ccccc3Br)C1CCC2 (centres undefined)	27.4 µM	> 50 µM	> 50 µM	> 50 µM	> 50 µM	> 50 µM	> 50 µM	> 50 µM	> 50 µM						
